The values below are quoted from earlier work in patent publication US5843937A (priority 1996, dated 1998).

The conditions of data set [1]: prior compounds; experimental animals (CC-1065); cited from earlier work.
Another data set has as its system double-stranded B-DNA. The following applies: cited from earlier work.
For data set [2] the following is noted: both in vitro and in experimental animals; cited from earlier work.

Take `COc1c(O)c2c(c3cc(C(=O)N4CCc5c4c(O)c(OC)c4[nH]c(C(=O)N6CC7CC78C6=CC(=O)c6[nH]cc(C)c68)cc54)[nH]c13)CCN2C(N)=O` (stereo not shown) [CC-1065]: in data set [1], the delayed death entry was “causes delayed death in experimental animals”. For the same compound, in the data set with double-stranded B-DNA (by its CPI left-hand unit), the alkylation site entry is given as “alkylates the N3 position of the 3'-adenine”. For the same compound, in the data set with double-stranded B-DNA (within the minor groove), the “sequence preference of DNA binding” value was 5'-d(A/GNTTA)-3' and 5'-d(AAAAA)-3'. The “antitumor and antimicrobial activity” value in data set [2] is “potent antitumor and antimicrobial activity both in vitro and in experimental animals”.
